Reference: patent publication US20240342121A1, “THE USE OF BETA-HYDROXYBUTYRATES FOR THE TREATMENT OR PREVENTION OF ANEURYSMS AND DISSECTIONS” (priority 2021, published 2024)
“Also recorded” adds a separate entry of the source.

Assays:
[1] = test system: angiotensin II (AII)-induced AAA; assay: AII-induced AAA mouse model, post-treatment; format: in vivo
From the text: To determine if senescence is a major cause of aneurysm development, the association between senescence and aneurysms using the angiotensin II (AII)-induced AAA model was investigated. Mice were infused AII for four weeks using osmotic mini-pump implantation into Apoe^−/− transgenic mouse.
To investigate the therapeutic potential of ketotherapy for abdominal aortic aneurysm (AAA), Ketogenic-diet (KD) and Ketone-ester (KE) were provided to angiotensin II (AII)-induced mouse model of AAA (FIG. 6). […] After completing AII infusion, the mice were post-treated with KD and KE for two to four weeks.
To investigate the time-dependent reduction of aorta diameter, the inner diameter of the aorta using ultrasound analysis was measured.

[2] = test system: senescent SMCs; assay: Cellular viability (cytotoxicity) assay of senescent and normal SMCs; format: cell-based; details: premature senescence by H2O2, Arsenite or Nutlin 3a, FIG. 2A
Experimental: FIGS. 2A-2L. (a) Cytotoxicity assay of normal smooth muscle cells (NS) and senescent smooth muscle cells (SMCs). Replicative senescent SMCs (RS) and premature senescent SMCs, stimulated by H2O2 (HP), arsenic (Ars), and Nutlin 3a (Nut) treatment were treated with βHB, s-βHB, and ABT-737. (b) Flow cytometry analysis of apoptosis by βHB or s-βHB in radiation (10 Gy)-induced senescent SMC. (c) Quantitation of apoptotic cell and senescent cell after treating βHB and s-βHB in radiation-induced senescent SMC. (d) Representative aorta image of AII-infused mice with post-treatment of ABT-737, βHB and s-βHB. (e) External diameter of abdominal aorta infused with AII and post-treated with ABT-737 βHB and s-βHB. (f) SA-βGal activity assay of the whole aorta infused with AII, and post-treated with ABT-737, KD, or KE. (g) Quantitation of senescent area on aorta of AII-infused mice, and post-treated with KD, KE and ABT-737. (h) TUNEL assay on the abdominal aorta of AII infused mice, and treated with ABT-737, βHB, or s-βHB. SM-α Actin (SMA) and DAPI are co-stained after TUNEL reaction. […]
The clearance of senescent cells that accumulate during the aneurysm development is required to reduce the volume of aneurysm plaque. Thus, the senotherapeutic potential of βHB to reverse AAA progression was evaluated. […]

[3] = test system: normal SMCs (NC); assay: Caspase 3 activity assay on normal SMCs; format: cell-based; details: FIG. 2I
Experimental: (§1) FIGS. 2A-2L. (a) Cytotoxicity assay of normal smooth muscle cells (NS) and senescent smooth muscle cells (SMCs). Replicative senescent SMCs (RS) and premature senescent SMCs, stimulated by H2O2 (HP), arsenic (Ars), and Nutlin 3a (Nut) treatment were treated with βHB, s-βHB, and ABT-737. (b) Flow cytometry analysis of apoptosis by βHB or s-βHB in radiation (10 Gy)-induced senescent SMC. (c) Quantitation of apoptotic cell and senescent cell after treating βHB and s-βHB in radiation-induced senescent SMC. (d) Representative aorta image of AII-infused mice with post-treatment of ABT-737, βHB and s-βHB. (e) External diameter of abdominal aorta infused with AII and post-treated with ABT-737 βHB and s-βHB. (f) SA-βGal activity assay of the whole aorta infused with AII, and post-treated with ABT-737, KD, or KE. (g) Quantitation of senescent area on aorta of AII-infused mice, and post-treated with KD, KE and ABT-737. (h) TUNEL assay on the abdominal aorta of AII infused mice, and treated with ABT-737, βHB, or s-βHB. SM-α Actin (SMA) and DAPI are co-stained after TUNEL reaction. (i) Caspase 3 activity assay on normal SMCs (NC) treated with βHB, or s-βHB, and ABT-737 comparing to normal cells pretreated with Nutlin-3a. (j) Caspase 3 activity assay on senescent SMCs (SNC) treated with βHB, or s-βHB, and ABT-737 compared to senescent cells pretreated with pifithrin-α. (k) Western blot analysis for p53 and puma expression on abdominal aorta tissue from mice treated with AII or KE. (I) Immunohistochemistry staining for puma expression on abdominal aorta infused by AII and post-treated with KE.
To overcome the anti-apoptotic barrier of senescence cells, senolytics usually target p53/Bcl2 cascades. Moreover, p53 is considered as a barrier to prevent apoptosis in senescence cells. Therefore, it was investigated if βHB-mediated apoptosis is p53 dependent. […] To further validate p53 dependent apoptosis on AAA, p53 activation and puma expression were investigated. […] In addition, inflammatory response accompanying the apoptosis of senescence cells was observed specifically in the abdominal aorta tissue, while systemic inflammation decreased during ketotherapy (FIGS. 10A-F). […] Ketotherapy can lower the blood pressure caused by AII infusion, which is not the case with ABT-737 (FIGS. 10H-J).

[4] = test system: senescent SMCs (SNC); assay: Caspase 3 activity assay on senescent SMCs; format: cell-based; details: p53 inhibition by pifithirin-α, FIG. 2J
Experimental: as §1, with “(k) Western blot analysis for p53 and puma expression on abdominal aorta tissue from mice treated with AII or KE. (I) Immunohistochemistry staining for puma expression on abdominal aorta infused by AII and post-treated with KE.” left out

[5] = in vivo
From the text: We established an in vivo tolerance test of βHB and s-βHB (FIGS. 9A and 9B). […] The reduction of the inner diameter of the aortic wall is also dramatic in the treatment of s-βHB in FIG. 9F (Two-way ANOVA, ^###P<0.005, n=10).

[6] = test system: lysine β-hydroxybutyrylation (KβHB); assay: Immunoblotting of lysine β-hydroxybutyrylation (KβHB) in SMCs; format: cell-based; details: FIG. 15A
From the text: FIGS. 15A-15B show immunoblotting of lysine β-hydroxybutyrylation (KβHB) on whole cell lysate (WCL) and fractionated lysate. (b) Immunofluorescent staining of SMA, KβHB, and DAPI on abdominal aorta.
Since epigenetic regulation directly affects the activity of transcriptional factors, such as Oct4, we evaluated if βHB is related to histone remodeling. βHB is a substrate of acyltransferase resulting in β-hydroxybutyrylation, a unique posttranslational modification that controls protein activity or gene expression. We hypothesize that β-hydroxybutyrylation on histone induces histone remodeling facilitating cellular reprogramming. To determine that β-hydroxybutyrylation (KβHB) is observed in senescent SMCs or aneurysms, we applied a specific antibody detecting KβHB modified protein. […] Together, it is supposed that β-hydroxybutyryl histone triggers the reprogramming process of senescent SMCs by regulating Oct4, which is overexpressed in aneurysms.

Question: With C[C@@H](O)CC(=O)O [βHB, (R)-3-Hydroxybutyrate] as the compound, how does the “TUNEL assay, apoptosis of senescent plaque in the aneurysm” value ([1]; FIG. 2H) read?
Answer: Its value is “induced targeted apoptosis of senescent plaque”.

Question: What about the “abdominal aorta stiffness, Pulse Wave Velocity (PWV)” value ([1]; FIG. 3H, FIG. 18A) of the same compound?
Answer: The value was “ameliorated vascular stiffness; also recorded: reversed aneurysm-associated aortic stiffness”.

Question: And the “KβHB modified protein in abdominal aorta” value ([1]; in vivo, immunofluorescent staining, FIG. 15B)?
Answer: Its value is “increases KβHB modified protein in nuclear”.

Question: And the “AAA rate after post-treating” value ([1]; incidence of AAA by angiotensin II infusion 67%, n=10, FIG. 9D)?
Answer: Its value is 47%.

Question: And the “AAA on whole aorta images” value ([1]; injected every other day for two weeks, FIG. 2D)?
Answer: The value was “successfully rescued”.

Question: What about the “myofibroblast, SM α-Actin and FSP co-staining in aortic wall” value ([1]; post-treatment, FIGS. 17A-17B) of the same compound?
Answer: Its value is “increases”.

Question: And the “number of senescent SMCs versus normal SMCs” value [2]?
Answer: Its value is “selectively reduced the number of senescent SMCs and not normal SMCs; also recorded: slightly reduced”.

Question: What about the “apoptosis in normal cells after p53 stabilization” value ([3]; after p53 stabilization by Nutlin 3a) of the same compound?
Answer: The value was “triggers apoptosis”.

Question: And the “apoptosis in normal cells (NC)” value ([3]; without Nutlin 3a)?
Answer: The value was “did not induce apoptosis”.

Question: And the “apoptosis with p53 inhibition” value [4]?
Answer: The value was “did not induce apoptosis”.

Question: What about the half-life [5] of the same compound?
Answer: The half-life was 50 min.

Question: And the metabolic elimination rate [5]?
Answer: The metabolic elimination rate was “faster than s-βHB”.

Question: What about the “KβHB modified proteins, Western blot” value [6] of the same compound?
Answer: The value was “increases KβHB modified proteins”.
